# Key:
# [1] = system: TNBS-induced SD rat models of chronic colitis with intestinal fibrosis; test: Pharmacodynamic experiment of TNBS-induced rat models of chronic colitis with intestinal fibrosis; type: in vivo, SD rats; settings: for AUC(0-10 d) (D 0-D 10) of DAI scores: after first TNBS induction; for AUC(0-10 d) (D 0-D 10) of DAI scores / AUC(14-24 d) (D 14-D 24) of DAI scores: mean ± SD; for AUC(14-24 d) (D 14-D 24) of DAI scores: after second TNBS induction; for CVF (%) of colon middle segment: Masson staining, model control 6.39 ± 3.16, normal 0.74 ± 0.32; for Inflammatory response (points), histopathological score of colon tissue / Tissue ulcer (points), histopathological score of colon tissue: colon middle segment, model control 2.00 ± 0.00; for HYP (μg/g) of colon middle segment: model control 2109.99 ± 385.85, normal 1141.78 ± 106.42; for Change rate of AUC(0-10 d) (%) / Change rate of AUC(14-24 d) (%): relative to model control group
# Excerpt: • 1) Animals: SD rats, specific pathogen-free (SPF) grade, male, aged 7 to 8 weeks at the time of grouping, with 10 rats per group. The animals were supplied by Beijing HFK Bioscience Co., Ltd. • 2) Reagents, positive drugs, and test drugs • A. Reagents
# • B. Positive Drugs: Sulfasalazine Colon-Soluble Capsules, Supplied by Guangdong Qiangji Pharmaceutical Co., Ltd. • C. Test Drug: Compound I, Supplied by Guangzhou JOYO Pharmatech Co., Ltd. • 3) Modeling method
# TNBS two-enema method: After the adaptation period inspection and observation were qualified, experimental animals were screened by body weight and randomly divided into six experimental groups based on body weight. The groups included a normal control group, a model control group, a positive drug treatment group, a test compound low dose treatment group, a test compound medium dose treatment group, and a test compound high dose treatment group, with 10 rats in each group. On the day of grouping, animals in the normal control group were administered 50% ethanol solution via enema, while animals in the other groups were administered TNBS ethanol solution via enema. The dose of TNBS was 30 mg per animal, with the induction of the model performed twice at a frequency of once every two weeks. The experimental period lasted for 4 weeks, during which all animals were given normal access to water and food. • 4) Grouping and administration
# The Disease Activity Index (DAI) scoring was performed on each group of experimental animals based on indicators such as animal body weight, stool morphology and characteristics, and occult blood or hematochezia. Scoring was performed after model induction, once a day for 10 consecutive days, for a total of 2 rounds.
# Note: The DAI score was performed based on the percentage of body weight loss, stool morphology, and progression of blood in the stool. Statistical analysis was conducted comprehensively using these three scoring indicators. • 6) Endpoint sample collection, histopathological analysis, and hydroxyproline content analysis • A. After euthanizing the animals with pentobarbital sodium anesthesia, the colon, i.e., the segment from the end of cecum to the anus, was excised. The intestinal segment was flushed with normal saline, and the entire colon was evenly divided into upper, middle, and lower segments. The middle segment of the colon was further divided, with part of the tissue quickly frozen in liquid nitrogen and stored in a −80° C. refrigerator for measuring the total hydroxyproline levels in the middle segment samples of the colon of animals in each group. The remaining middle segment tissue was fixed in 10% formaldehyde, embedded in paraffin, and sectioned into 3 μm-thick slices. These slices were then deparaffinized in xylene, rehydrated through a graded ethanol series, subjected to H&E staining and Masson staining, dehydrated, cleared, sealed, and observed under a microscope to capture histopathological changes. Routine tissue freezing was performed. • B. Histopathological analysis
# • a: Based on the Masson staining results, the area of collagen staining-positive regions and the total area of samples from the middle segment samples of the colon (submucosa and muscularis) of animals in each experimental group were statistically analyzed using Image J to calculate the collagen volume fraction (CVF %) of each sample. • C. Detection of hydroxyproline levels in the colon
# The middle segment samples of the colon were processed according to the instructions, using the hydroxyproline detection kit. The total hydroxyproline levels in the middle segment samples of the colon of animals in each group were measured.
# [2] = system: carbon tetrachloride-induced SD rat models of liver fibrosis; test: In vivo pharmacodynamic study on carbon tetrachloride-induced rat models of liver fibrosis; set-up: species or system SD rats; settings: for Liver fibrosis score (points): Sirius Red staining, model control 4.90 ± 0.88; for Liver CVF (%): model control 8.75 ± 2.39, normal 1.24 ± 0.23; for Liver HYP content: model control 702.84 ± 173.44, normal 307.30 ± 78.13
# Excerpt: • 1) Animals: SD rats, specific pathogen-free (SPF) grade, male, aged 7 to 8 weeks at the time of grouping, with 10 mice per group. The animals were supplied by Beijing HFK Bioscience Co., Ltd. • 2) Reagents, positive drugs, and test drugs • A. Reagents
# • B. Positive Drug: Pirfenidone, Supplied by Biochempartner. • C. Test Drug: compound I, supplied by Guangzhou JOYO Pharmatech Co., Ltd. • 3) Modeling method
# Intraperitoneal injection method of carbon tetrachloride: After the adaptation period inspection and observation were qualified, experimental animals were screened by body weight and randomly divided into a normal control group and a model induction group. Starting on the first day of grouping, animals in the model induction group were intraperitoneally injected with a 20% carbon tetrachloride solution dissolved in corn oil, at a modeling frequency of twice a week for six consecutive weeks. After two weeks of carbon tetrachloride induction, animals in the model induction group were randomly subdivided a second time into 5 experimental groups based on their alanine transaminase (ALT) levels (with body weight used as a calibration factor), including the model control group, positive drug treatment group, test compound low dose treatment group, test compound medium dose treatment group, and test compound high dose treatment group. Animals in the normal control group were administered the corresponding vehicle. The experimental period lasted for 6 weeks, during which all animals were given normal access to water and food. • 4) Grouping and administration info
# • a: The test compound vehicle was an aqueous solution of 0.5% (w/v) methylcellulose and 0.2% (v/v) Tween 80. • b: An aqueous solution of 0.5% (w/v) methylcellulose and 0.2% (v/v) Tween 80 was used as the vehicle and prepared to the required concentration. • 5) Endpoint sample collection, histopathological analysis, and hydroxyproline content analysis. • A. After euthanizing the animals with pentobarbital sodium anesthesia, the liver was excised and rinsed with normal saline. The liver was divided into three segments: the large lobe, the left lobe, and the right-middle lobe. The large lobe tissue was quickly frozen in liquid nitrogen and stored in a −80° C. refrigerator for measuring the total hydroxyproline levels of animal liver samples in each group. The tissues of left lobe and right-middle lobe of liver were fixed in 10% formaldehyde, embedded in paraffin, and sectioned into 3 μm-thick slices. These slices were then deparaffinized in xylene, rehydrated through a graded ethanol series, subjected to Sirius Red staining, dehydrated, cleared, sealed, and observed under a microscope to capture histopathological changes. Routine tissue freezing was performed. • B. Analysis of fibrosis levels in liver tissue sections;
# Based on Sirius Red staining results of liver sections, 1) fibrosis staging was scored according to the scoring criteria listed in Table 3; 2) using Image J, the liver fibrotic area and the total sample area of animals in each experimental group were counted to calculate the collagen volume fraction (CVF %) for each sample. • C. Detection of hydroxyproline levels in liver
# The liver large lobe samples were processed according to the instructions using the hydroxyproline detection kit. The total hydroxyproline levels in the liver samples of animals in each group were detected.
# [3] = Compound I high dose 15 mg/kg oral gavage twice a day
# [4] = Compound I high dose 15 mg/kg twice a day for 4 weeks
# [5] = Compound I high dose 15 mg/kg twice a day
# [6] = Compound I low dose 3 mg/kg oral gavage twice a day
# [7] = Compound I low dose 3 mg/kg twice a day for 4 weeks
# [8] = Compound I low dose 3 mg/kg twice a day
# [9] = Compound I medium dose 6 mg/kg oral gavage twice a day
# [10] = Compound I medium dose 6 mg/kg twice a day for 4 weeks
# [11] = Compound I medium dose 6 mg/kg twice a day
# [12] = Compound I high dose 30 mg/kg twice a day for 4 weeks
# [13] = Compound I medium dose 10 mg/kg twice a day for 4 weeks
# [14] = pirfenidone 150 mg/kg twice a day for 4 weeks
# [15] = sulfasalazine 50 mg/kg oral gavage twice a day
# [16] = sulfasalazine 50 mg/kg twice a day
# [17] = sulfasalazine 50 mg/kg twice a day for 4 weeks
smiles,measurement,setting,value
CC1(c2ccc(=O)n(-c3ccsc3)c2)COC1 [Compound I],Efficacy evaluation result (conclusion),"[1]; Compound I 3.0, 6.0 and 15.0 mg/kg twice a day, 4 weeks",significant therapeutic effect
same,AUC(0-10 d) (D 0-D 10) of DAI scores,[1]; [3],33.50 ± 3.97
same,AUC(14-24 d) (D 14-D 24) of DAI scores,[1]; [3],15.40 ± 3.50
same,CVF (%) of colon middle segment,[1]; [4],2.37 ± 1.33 %
same,"Inflammatory response (points), histopathological score of colon tissue",[1]; [4],0.80 ± 0.79 points
same,"Tissue ulcer (points), histopathological score of colon tissue",[1]; [4],0.70 ± 0.67 points
same,HYP (μg/g) of colon middle segment,[1]; [4],1270.56 ± 287.01 µg/g
same,Change rate of AUC(0-10 d) (%),[1]; [5],−26.78%
same,Change rate of AUC(14-24 d) (%),[1]; [5],−35.97%
same,AUC(0-10 d) (D 0-D 10) of DAI scores,[1]; [6],37.15 ± 4.93
same,AUC(14-24 d) (D 14-D 24) of DAI scores,[1]; [6],19.30 ± 2.79
same,CVF (%) of colon middle segment,[1]; [7],2.97 ± 1.78 %
same,"Inflammatory response (points), histopathological score of colon tissue",[1]; [7],1.00 ± 0.67 points
same,"Tissue ulcer (points), histopathological score of colon tissue",[1]; [7],0.80 ± 0.63 points
same,HYP (μg/g) of colon middle segment,[1]; [7],1333.43 ± 155.33 µg/g
same,Change rate of AUC(0-10 d) (%),[1]; [8],−18.80%
same,Change rate of AUC(14-24 d) (%),[1]; [8],−19.75%
same,AUC(0-10 d) (D 0-D 10) of DAI scores,[1]; [9],36.05 ± 4.87
same,AUC(14-24 d) (D 14-D 24) of DAI scores,[1]; [9],17.25 ± 3.16
same,CVF (%) of colon middle segment,[1]; [10],2.36 ± 1.47 %
same,"Inflammatory response (points), histopathological score of colon tissue",[1]; [10],0.70 ± 0.67 points
same,"Tissue ulcer (points), histopathological score of colon tissue",[1]; [10],0.70 ± 0.67 points
same,HYP (μg/g) of colon middle segment,[1]; [10],1228.40 ± 235.44^####+ μg/g
same,Change rate of AUC(0-10 d) (%),[1]; [11],−21.20%
same,Change rate of AUC(14-24 d) (%),[1]; [11],−28.27%
same,Colon tissue healing and degree of fibrosis (histopathology),"[1]; all Compound I treatment groups (3, 6, 15 mg/kg twice a day)",tissue healing and a reduction in the degree of fibrosis were observed
same,"Effective dose (colon fibrosis, HYP level improvement)","[1]; oral gavage twice a day, certain dose-dependent relationship",3.0 mg/kg
same,Effective low dose (DAI AUC(0-10 d) improvement),"[1]; oral gavage twice a day, chronic colitis disease process",3.0 mg/kg
same,Efficacy evaluation result (conclusion),"[2]; Compound I 3.0, 10.0 and 30.0 mg/kg twice a day, 4 weeks",significant therapeutic effect
same,Liver fibrosis score (points),[2]; Compound I high dose 30 mg/kg oral gavage twice a day for 4 weeks,4.20 ± 0.92 points
same,Liver CVF (%),[2]; [12],5.60 ± 1.92 %
same,Liver HYP content,[2]; [12],607.79 ± 112.74 µg/g
same,Liver fibrosis score (points),[2]; Compound I low dose 3 mg/kg oral gavage twice a day for 4 weeks,4.40 ± 0.70 points
same,Liver CVF (%),[2]; [7],5.02 ± 1.42 %
same,Liver HYP content,[2]; [7],716.17 ± 105.01 µg/g
same,Pseudolobular structure of the liver under light microscope,"[2]; Compound I medium and high dose treatment groups (10, 30 mg/kg twice a day), some animals, Sirius Red",tended to disintegrate
same,Liver fibrosis score (points),[2]; Compound I medium dose 10 mg/kg oral gavage twice a day for 4 weeks,4.00 ± 0.94 points
same,Liver CVF (%),[2]; [13],4.87 ± 1.68 %
same,Liver HYP content,[2]; [13],560.60 ± 114.04 µg/g
same,Hepatocyte fat degeneration and swelling degeneration in the central vein area of the liver,"[2]; each Compound I treatment group vs model control, medium and high dose most obvious",reduced to some extent
"Cc1ccc(=O)n(-c2ccccc2)c1 [Pirfenidone, reference compound]",Liver fibrosis score (points),[2]; pirfenidone 150 mg/kg oral gavage twice a day for 4 weeks,5.40 ± 0.52 points
same,Liver CVF (%),[2]; [14],6.58 ± 2.20 %
same,Liver HYP content,[2]; [14],611.19 ± 183.66 µg/g
same,Liver histopathological improvement under light microscope,"[2]; pirfenidone 150 mg/kg twice a day, Sirius Red",no significant improvement
"O=C(O)c1cc(/N=N/c2ccc(S(=O)(=O)Nc3ccccn3)cc2)ccc1O [Sulfasalazine, reference compound]",AUC(0-10 d) (D 0-D 10) of DAI scores,[1]; [15],29.80 ± 2.79
same,AUC(14-24 d) (D 14-D 24) of DAI scores,[1]; [15],11.70 ± 1.69
same,Proliferation of connective tissue and fibrosis process in submucosa and muscularis of the colon,[1]; [16],significant improvements and healing
same,CVF (%) of colon middle segment,[1]; [17],2.67 ± 1.06 %
same,"Inflammatory response (points), histopathological score of colon tissue",[1]; [17],0.60 ± 0.52 points
same,"Tissue ulcer (points), histopathological score of colon tissue",[1]; [17],0.50 ± 0.53 points
same,HYP (μg/g) of colon middle segment,[1]; [17],1299.79 ± 161.27 µg/g
same,Change rate of AUC(0-10 d) (%),[1]; [16],−34.86%
same,Change rate of AUC(14-24 d) (%),[1]; [16],−51.35%

# From patent US20260027094A1, “USE OF PYRIDONE DERIVATIVE” (GUANGZHOU JOYO PHARMATECH CO., LTD, priority 2022, published 2026)
